Consider 3 compounds from patent publication US8933228B2, “Respiratory formulations and compounds for use therein” (Respivert, Ltd., priority 2010, dated 2015).

One series concerns the target p38 MAPK alpha (MAPK14) (Homo sapiens (Human), UniProt Q16539). In words: Enzyme inhibition assay (FRET, Z-LYTE), p38 MAPK alpha via MAPKAP-K2 activation. Type of series: biochemical. Particulars: read-out: Enzyme Profile: IC50 Values p38α. The procedure, abridged:
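Recombinant p38 MAPKα was preincubated with compound 2 hr at RT. Its activity was measured indirectly through MAPKAP-K2 activation/phosphorylation, read by Z-LYTE FRET after 1 hr protease development. Phosphorylation was taken from the coumarin/fluorescein emission ratio.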

For the next series, the target named is p38 MAPK γ (MAPK12) (Homo sapiens (Human), UniProt P53778). The experiment in a line: Enzyme inhibition assay (FRET, Z-LYTE), p38 MAPK gamma. Type of series: biochemical. Conditions: read-out: Enzyme Profile: IC50 Values p38γ. The procedure, abridged:
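Recombinant phosphorylated human p38γ preincubated with compound 2 hr at RT in HEPES buffer, then reacted 1 hr with 2 μM FRET peptide and 100 μM ATP. Protease development 1 hr; phosphorylation derived from coumarin/fluorescein emission ratio.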

Another series deals with HCK enzyme (Homo sapiens (Human), UniProt P08631). The experiment in a line: HCK enzyme inhibition assay (FRET, Z'-LYTE). It is filed as biochemical. Particulars: read-out: Enzyme Profile: IC50 Values HCK.
The target of the next series is cSrc enzyme (Homo sapiens (Human), UniProt P12931). The experiment in a line: c-SRC enzyme inhibition assay (FRET, Z'-LYTE). Particulars: read-out: Enzyme Profile: IC50 Values cSrc. It is filed as biochemical.
The subject of series [1] is TNFα release in THP-1 cells. The experiment in a line: LPS-induced TNFα release in THP-1 cells. Conditions: Homo sapiens; THP-1 cells, LPS 3 μg/mL, 4 hr; read-out: THP1 (LPS) TNFα IC50. It is filed as cell-based. The method, then: The inhibition of TNFα production was calculated at each concentration by comparison with vehicle control.
The test system of series [2] is TNFα release in d-U937 cells. In words: LPS-induced TNFα release in d-U937 cells. It is filed as cell-based. Conditions: Homo sapiens, dU937, LPS 0.1 μg/mL, 4 hr, relative to 10 μg/mL BIRB796, read-out: d-U937 (LPS) TNFα REC50. The procedure, abridged: (§1)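 U937 cells made macrophage-like by 48–72 h with PMA (100 ng/mL), then stimulated with LPS (E. coli O111:B4) for 4 h. Supernatant TNFα and IL-8 measured by sandwich ELISA; inhibition versus vehicle control at each concentration, REC50 from concentration-response curve.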

In series [3] the test system is IL-8 release in d-U937 cells. The experiment in a line: LPS-induced IL-8 release in d-U937 cells. Type of series: cell-based. Particulars: Homo sapiens, dU937; d-U937 cells, LPS 0.1 μg/mL, 4 hr; read-out: d-U937 (LPS) IL-8 IC50. The procedure, abridged:
as §1

Series [4] has as its system ICAM-1 expression in BEAS2B cells. In words: Poly I:C-induced ICAM-1 induction in BEAS2B cells. It is filed as cell-based. Conditions: Homo sapiens, BEAS-2B; BEAS2B cells, poly I:C 1 μg/mL, 18 hr; read-out: BEAS2B (polyIC) ICAM1 IC50. The procedure, abridged: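 Human bronchial epithelial BEAS2B cells pre-incubated 2 hr with test compounds at final concentrations, then transfected with poly I:C (1 μg/mL) using Oligofectamine. Cell-surface ICAM-1 quantified by cell-based ELISA with HRP-conjugated anti-rabbit IgG secondary.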

The subject of another series is HRV16. The experiment in a line: Rhinovirus-titre assay. Conditions: HRV16; for inhibition at 0.04 µg/mL: Human rhinovirus sp., cell not marked b, test compounds 0.04 μg/mL per method (footnote b, 0.2 μg/mL), read-out: HRV titre (inhibitory %): % inhibition observed vs. HRV16 infection control. Type of series: cell-based, human rhinovirus.
Series [5] has as its system Differentiated U937 cells. The experiment in a line: MTT assay: cell viability. It is filed as cell-based, human. Particulars: 1 μg/ml; for d-U937 MTT Assay 4 h: 5% FCS; for d-U937 MTT Assay 24 h: 10% FCS. The procedure, abridged:
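Differentiated U937 cells pre-incubated with compound either 4 hr in 5% FCS or 24 h in 10% FCS, then 1 hr MTT. Formazan dissolved in DMSO, absorbance at 550 nm. Percentage viability loss relative to 0.5% DMSO vehicle; apparent increases appear as negative percentages.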

As a reminder, the IC50 is the point on the concentration scale where inhibition reaches its midpoint. Broadly, the inhibition is the relative decrease from the control value, in per cent. As for `CC(C)(C)c1cc(NC(=O)Nc2ccc(Oc3ccnc4[nH]c(=O)cnc34)c3ccccc23)n(-c2ccc(S(C)(=O)=O)cc2)n1` [Example 31, 1-(3-(tert-butyl)-1-(4-(methylsulfonyl)phenyl)-1H-pyrazol-5-yl)-3-(4-((3-oxo-3,4-dihydropyrido[2,3-b]pyrazin-8-yl)oxy)naphthalen-1-yl)urea], the half-inhibitory concentration (IC50) at p38 MAPK alpha (MAPK14) was 5 nM; at p38 MAPK γ (MAPK12), 47 nM; on HCK enzyme, 3 nM; at cSrc enzyme, 6 nM; in series [1], 62 nM; in series [3], 68 nM. In addition, the concentration for half-maximal inhibition (IC50) in series [4] came to 178 nM. Further, the EC50 in series [2] was found to be 60 nM. The inhibition at 0.04 µg/mL in the series on HRV16 amounted to 8%. Also, the “d-U937 MTT Assay 4 h” value in series [5] is “− (− and + indicate the result is below and above the no significant effect threshold, respectively (<30% inhibition at a concentration of 1 μg/ml))”. Besides, in [5], the “d-U937 MTT Assay 24 h” value was “− (− and + indicate the result is below and above the no significant effect threshold, respectively (<30% inhibition at a concentration of 1 μg/ml))”.

Regarding `Cc1ccc(-n2nc(C(C)(C)C)cc2NC(=O)Nc2ccc(Oc3ccnc4[nH]c(=O)n(C)c34)c3ccccc23)cc1` [Example 3, 1-(3-tert-butyl-1-p-tolyl-1H-pyrazol-5-yl)-3-(4-(1-methyl-2-oxo-2,3-dihydro-1H-imidazo[4,5-b]pyridin-7-yloxy)naphthalen-1-yl)urea], the IC50 on p38 MAPK alpha (MAPK14) is 1 nM; at p38 MAPK γ (MAPK12), 24 nM; at HCK enzyme, 2 nM; at cSrc enzyme it was 4 nM; in series [1] it was 0.7 nM; in series [3] it was 17 nM. Besides, in [4], the half-maximal inhibitory concentration (IC50) came out at 4.1 nM. The EC50 in [2] came to 1.1 nM. For the same compound, the inhibition at 0.04 µg/mL in the series on HRV16 came to 36%. Further, in the series on HRV16 (at 0.04 μg/mL vs. pleconaril at 0.1 μg/mL), the “NBEC (HRV) HRV titre Relative anti-viral activity” value was 0.2. In addition, the “d-U937 MTT Assay 4 h” value in series [5] is “− (− and + indicate the result is below and above the no significant effect threshold, respectively (<30% inhibition at a concentration of 1 μg/ml))”. In addition, the “d-U937 MTT Assay 24 h” value in series [5] is “− (− and + indicate the result is below and above the no significant effect threshold, respectively (<30% inhibition at a concentration of 1 μg/ml))”.

Take `COc1ccc(-n2nc(C(C)(C)C)cc2NC(=O)Nc2ccc(Oc3ccnc4[nH]c(=O)cnc34)c3ccccc23)cn1` [Example 20]: the concentration for half-maximal inhibition (IC50) on p38 MAPK alpha (MAPK14) stood at 6 nM; at p38 MAPK γ (MAPK12), 44 nM; at HCK enzyme, 3 nM; on cSrc enzyme it was 8 nM; in [1], 13 nM; in series [3], 16 nM. Besides, the 50% inhibitory concentration (IC50) in series [4] came out at 21 nM. Further, the EC50 in series [2] came to 3.4 nM. Besides, the inhibition at 0.04 µg/mL in the series on HRV16 turned out to be 36%. Besides, in [5], the “d-U937 MTT Assay 4 h” value was “− (− and + indicate the result is below and above the no significant effect threshold, respectively (<30% inhibition at a concentration of 1 μg/ml))”. Moreover, in series [5], the “d-U937 MTT Assay 24 h” value was “− (− and + indicate the result is below and above the no significant effect threshold, respectively (<30% inhibition at a concentration of 1 μg/ml))”.
